Experiment: LC/MS/MS analysis of DON in plasma and VM-M3 brain tumour tissue
Assay type: in vivo, mouse (VM/Dk)
Conditions: for concentration of DON in VM-M3 tumour tissue, mice fed KD-R versus mice fed SD-UR: 60 min after i.p. DON 1.0 mg/kg
Experimental: FIGS. 4A and 4B. Restricted Ketogenic diet increases DON delivery to the VM-M3 GBM. The content of DON in the VM-M3 brain tumour tissue was quantified using two LC/MS/MS procedures, as described in Methods. The brain tissue was analyzed for DON content 60 minutes after i.p. DON injection. The values in experiment a are presented as mean of two independent samples, while the values in experiment b are presented as the mean±SEM (n=3). The difference between the two groups in experiment b was significant (P<0.01).
Plasma and brain tissues were prepared for DON analysis one hour after systemic DON injection, as described in Methods below. […] In another independent experiment, using a similar analytical system, the concentration of DON in the VM-M3 tumour tissue was about 3-fold greater in mice fed the KD-R than in mice fed the SD-UR (FIG. 4B). In both methods of measurement, DON delivery to the brain was greater in the mice fed the KD-R than in the mice fed the SD-UR (FIGS. 4A and 4B). DON was detected in plasma 10 min after i.p. injection (data not shown) and was detected in brain tissue 60 min following injection. These findings indicate that the KD-R facilitated delivery of DON to the VM-M3 tumour tissue.
Two independent LC-MS instruments and procedures were used to measure the amount of DON in the blood and in the VM-M3 tumour tissues. This was done to validate the accuracy of the procedures. A Triple quad method (Agilent 6460) was used to analyze DON in the first procedure (FIG. 4A). Mice were injected with 1.0 mg/kg of DON at either 10 min or 60 min before collection of the brains and blood. The brains were immediately flash frozen. Blood samples were collected before removal of the brain. 3N HCl+n-butanol (250 μl) was added to 50 μl of plasma, vortexed and then centrifuged at 16,000×g for 5 min to precipitate proteins. A 200 μl aliquot of the supernatant was transferred to a 1.5 ml tube and incubated at 60° C. for 30 min in a shaking water bath to perform the DON derivatization reaction. For the brain tissue, 5 μl of n-butanol containing 3N HCl was added per milligram tissue. The tissue sample was then homogenized with a glass pestle and was then vortexed and centrifuged, and prepared similarly to the plasma samples. Standard solutions were prepared by serial dilution to generate concentrations from 10 nM to 100 μM. DON was added to untreated mouse plasma or brain tissue to generate an internal standard curve. A high-resolution LC-MS QToF method (Agilent 6550) was used to analyze DON in the second procedure (FIG. 4B). Mice were injected with DON as above. Pre-weighed frozen brain tissue was transferred to a tube containing ceramic beads (Omni tubes). 3M HCl+butanol was added at a concentration of 5 μI/mg of tissue. […]

**Q.** With [N-]=[N+]=CC(=O)CC[C@H](N)C(=O)O [DON, 6-diazo-5-oxo-L-norleucine] as the molecule, how does the DON in plasma (10 min after i.p. injection) read?
**A.** Its DON in plasma is “detected”.

**Q.** What about the “DON in brain tissue” value (60 min following injection) of the same molecule?
**A.** The value was “detected”.

**Q.** And the “concentration of DON in VM-M3 tumour tissue, mice fed KD-R versus mice fed SD-UR” value (first procedure (FIG. 4A))?
**A.** Its value is “about 2 fold”.

**Q.** What about the “concentration of DON in VM-M3 tumour tissue, mice fed KD-R versus mice fed SD-UR” value (independent experiment (FIG. 4B)) of the same molecule?
**A.** Its value is “about 3 fold”.

Reference: patent publication US20200316096A1, “COMBINATION OF DIET AND DRUG THERAPY FOR TREATING CANCER” (Trustees of Boston College, priority 2019, published 2020)
